pIC50: −log10 of the molar value.

The experiment addresses T1, Cytochrome P450 2C23 (Rattus norvegicus, UniProt P24470).
T1 sequence (P24470 whole entry): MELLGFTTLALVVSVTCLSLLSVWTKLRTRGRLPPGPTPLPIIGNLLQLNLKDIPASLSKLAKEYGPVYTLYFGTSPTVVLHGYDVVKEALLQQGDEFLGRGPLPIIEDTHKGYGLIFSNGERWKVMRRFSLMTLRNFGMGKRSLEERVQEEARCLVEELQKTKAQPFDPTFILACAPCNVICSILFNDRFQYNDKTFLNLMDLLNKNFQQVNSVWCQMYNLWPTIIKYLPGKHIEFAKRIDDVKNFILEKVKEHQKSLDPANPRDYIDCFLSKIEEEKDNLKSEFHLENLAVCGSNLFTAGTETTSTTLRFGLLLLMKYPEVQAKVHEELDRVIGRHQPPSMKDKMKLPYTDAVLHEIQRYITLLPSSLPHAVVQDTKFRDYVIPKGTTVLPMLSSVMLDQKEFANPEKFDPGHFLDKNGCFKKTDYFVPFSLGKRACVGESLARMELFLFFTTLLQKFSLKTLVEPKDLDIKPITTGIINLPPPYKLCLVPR
The experiment is described as follows: Inhibition of Cytochrome P450 epoxygenase in rat kidney microsomes. Format: ADME.
One may read the pIC50 as the IC50 on a negative log10 scale, so that one unit is a factor of ten. `CS(=O)(=O)NC(=O)CCCCCCCC=C(Br)Br`: the pIC50 was 5.22.
In turn, `COC(=O)CCCCCCCC=C(Br)Br` gave a pIC50 of 5.22.
Molecule `C#CC#CC(O)CCc1ccccc1-c1ccccc1CO` (stereo not drawn) had a pIC50 of 5.30.

These data come from ChEMBL document CHEMBL1129810, “Eicosanoid biosynthesis: differential inhibition of cytochrome P450 epoxygenase and -hydroxylase” (Bioorg Med Chem Lett, 1997).
